Experiments:
[1] = test system: Methylobacter capsulatus Y (NRRL B-11,201); experiment: sec-alcohols to ketones by resting cell suspensions; type: cell-based
Method: (§1) The pH of the nutrient medium was adjusted to 7.0 by the addition of acid or base and 50 ml. samples of the nutrient medium were charged into a plurality of 300 ml. shaker flasks. The shaker flasks were inoculated with an inoculating loop of cells from an agar plate containing homogeneous colonies of the microorganisms on the plate (the purity of the isolates was confirmed by microscopic examination). The isolates had been maintained on methanol (0.4% V/V) agar plates or on agar plates under an atmosphere of methane and air having a 1:1 V/V gas ratio which had been transferred every two weeks. For growth on methanol, the medium was supplemented with 0.4% methanol. For growth on methane, the gaseous phase of the inoculated flasks was replaced with a gas mixture comprised of methane and air having a ratio of 1:1 on a V/V basis. The inoculated flasks were sealed air-tight and were incubated on a rotary shaker of orbital radius 2.5 cm. at 250 rpm and at 30° C. for two days until turbidity in the medium had developed. The cells were harvested by centrifugation at 10,000×g. at 4° C. for 30 minutes. The cell pellet was washed twice with a 0.05 M phosphate buffer at a pH of 7.0 (containing 0.02 M MgCl2). The washed cells were then suspended in a 0.05 M phosphate buffer at pH 7.0.
(§2) A 0.5 ml. sample of each washed cell suspension (2 mg. cells) was put into 10 ml. vials at 4° C. which were sealed with a rubber cap. The gaseous phase of the vials was removed with vacuum and then was replaced with a gas mixture of the substrate reactant (i.e., alkane or secondary alcohol) and oxygen at a 1:1 V/V ratio. (In the case of a liquid substrate, i.e., secondary alcohol, 10 μl of the substrate was put in the 10 ml. vials). […] Samples of product (1-3 μl) were withdrawn periodically with a microsyringe and the products were analyzed by gas chromatography (ionization flame detector column).
(§3) The procedure in Example 1 was repeated wherein a plurality of the methane-utilizing methylotrophic microorganisms were each grown aerobically in a nutrient medium containing methane as the alcohol dehydrogenase enzyme inducer and as the major carbon and energy source for growth. The cells were harvested and washed as described in Example 1. The resting microbial cells of the induced methane-grown methane-utilizing methylotrophic microorganisms were then contacted with C3 -C6 secondary alcohols in a buffered solution by the procedure of Example 1.
(§4) In this example, the procedure in Example 1 was repeated except that a plurality of methane-utilizing methylotrophic microorganisms were each aerobically grown in a methanol-containing nutrient medium instead of a methane-containing medium. The nutrients in the medium were the same as indicated in Example 1 except that 0.4% V/V methanol was used as the alcohol dehydrogenase inducer and major source of carbon and energy for growth. Following growth, the cells were harvested and washed as described in Example 1.
(§5) The resting cells of the induced methanol-grown methylotrophic microorganisms were then contacted with secondary alcohols in a buffered solution by the procedure described in Example 1.

[2] = test system: Methylococcus capsulatus, Texas (ATCC 19069); experiment: as above; type: cell-based
Method: as §1, §2, §3, §4, §5

[3] = test system: Methylocystis parvus OBBP (NRRL B-11,198); experiment: as above; type: cell-based
Method: as §1, §2, §3, §4, §5

[4] = test system: Methylomonas methanica S1 (NRRL B-11,199); experiment: as above; type: cell-based
Method: as §1, §2, §3, §4, §5

[5] = test system: secondary alcohol dehydrogenase (SADH), cell-free soluble extract; experiment: oxidation of sec-alcohols by cell-free soluble extracts; type: biochemical, Methylobacterium organophilum CRL 26 (NRRL B-11,222); conditions: for Oxidation Rate, sec-alcohol to corresponding ketone: soluble crude extract, grown on methanol
Method: To prepare the cell-free secondary alcohol dehydrogenase (SADH) system, the washed cells were disrupted with a Wave Energy Ultrasonic Oscillator, Model W201 (Wave Energy System, Inc., Newtown, Pa.) and centrifuged at 20,000×g. for 30 minutes. […] The enzyme activity was measured with a fluorescence spectrophotometer (Perkin Elmer, Model MPF 44A) by following the formation of reduced NAD (EX 340 nm, Em 460 nm). The formation of reduced NAD was also followed with an absorption spectrophotometer at 340 nm. The assay system (3 ml.) contained: potassium phosphate buffer pH 7.0; 150 μmol.; NAD 1 μmol.; a given amount of enzyme preparation; and secondary alcohol 10 μmol. The reaction was started by the addition of substrate. One unit of enzyme activity represents the reduction of one μmole NAD per minute. Protein concentrations were determined by the Lowry method (J. Biol. Chem., 193: 255-275 (1951)).
The experimental procedure for the tests reported in Table VIII were as follows: 1 mg protein of crude extract was added into a 0.5 ml. 0.05 M phosphate buffer (pH 7.0) in a 10-ml. vial. […] The reaction mixture was incubated at 30° C. on a water bath. A 3 μl sample was removed with a syringe at 15 min. of incubation and was assayed with g.l.c. Catalytic activity was also assayed by fluorescence spectrophotometry.

[6] = test system: Candida utilis ATCC 26387; experiment: sec-alcohols to ketones by cell suspensions of yeasts; type: cell-based
Pichia sp. NRRL-Y-11328 = experiment: as above; type: cell-based
[7] = test system: cell extracts (NAD+-dependent secondary alcohol dehydrogenase); experiment: sec-alcohols to methyl ketones by cell extracts of yeasts, gas chromatography; type: biochemical, Candida utilis ATCC 26,387; conditions: grown on methanol
Method: The supernantant liquid was termed the crude extracts.
The reaction mixture, in a total of 3.0 ml., contained 50 mM phosphate buffer, pH 7.0, 20 μmole NAD^+, cell extracts (1 ml.).
The ketone product obtained from oxidation of sec-alcohols by cell extracts of organisms were estimated by flame ionization gas chromatography by using a stainless steel column (12 ft. by 1/8 in.) packed with 10% Carbowax 20 M on 80/100 chromosorb w column (Perkin Elmer Corp., Norwalk, Conn.). The column temperature was maintained isothermally at 130° C. and the carrier gas flow was 30 ml. of helium per min. […] The protein content of cell-suspensions was determined by the Lowry et al. method.
NRRL Y-11,328 Torulopsis sp.

[8] = test system: cell extracts (NAD+-dependent secondary alcohol dehydrogenase); experiment: as above; type: biochemical, Hansenula polymorpha ATCC 26,012; conditions: grown on methanol
[9] = test system: cell extracts (NAD+-dependent secondary alcohol dehydrogenase); experiment: as above; type: biochemical, Torulopsis sp. strain A1 NRRL-Y-11,419; conditions: grown on methanol
[10] = test system: cell extracts (NAD+-dependent secondary alcohol dehydrogenase); experiment: as above; type: biochemical, Kloeckera sp. strain A2 NRRL-Y-11,420; conditions: grown on methanol

Compound	Conversion Rates, sec-alcohol to corresponding ketone ([1]; cells grown on methane) [μmoles/hr/mg protein]	Conversion Rates, sec-alcohol to corresponding ketone ([1]; cells grown on methanol) [μn moles/hr/mg protein]	Conversion Rates, sec-alcohol to corresponding ketone ([2]; cells grown on methane) [μmoles/hr/mg protein]	Conversion Rates, sec-alcohol to corresponding ketone ([2]; cells grown on methanol) [μn moles/hr/mg protein]	Conversion Rates, sec-alcohol to corresponding ketone ([3]; cells grown on methane) [μmoles/hr/mg protein]	Conversion Rates, sec-alcohol to corresponding ketone ([3]; cells grown on methanol) [μn moles/hr/mg protein]	Conversion Rates, sec-alcohol to corresponding ketone ([4]; cells grown on methane) [μmoles/hr/mg protein]	Conversion Rates, sec-alcohol to corresponding ketone ([4]; cells grown on methanol) [μn moles/hr/mg protein]	Oxidation Rate, sec-alcohol to corresponding ketone [5] [nmole/min/mg protein]	Conversion Rate, sec-alcohol to corresponding ketone ([6]; Growth Substrate Ethanol)	Conversion Rate, sec-alcohol to corresponding ketone ([6]; Growth Substrate Methanol)	Conversion Rate, sec-alcohol to corresponding ketone ([6]; Growth Substrate Methylamine)	Conversion Rate, sec-alcohol to corresponding ketone ([6]; Growth Substrate Methylformate)	Conversion Rate, sec-alcohol to corresponding ketone ([6]; Growth Substrate Propylamine)	Conversion Rate, sec-alcohol to corresponding ketone (Pichia sp. NRRL-Y-11328; Growth Substrate Ethanol)	Conversion Rate, sec-alcohol to corresponding ketone (Pichia sp. NRRL-Y-11328; Growth Substrate Methanol)	Conversion Rate, sec-alcohol to corresponding ketone (Pichia sp. NRRL-Y-11328; Growth Substrate Methylamine)	Conversion Rate, sec-alcohol to corresponding ketone (Pichia sp. NRRL-Y-11328; Growth Substrate Methylformate)	Conversion Rate, sec-alcohol to corresponding ketone (Pichia sp. NRRL-Y-11328; Growth Substrate Propylamine)	Conversion Rate, sec-alcohol to methyl ketone [7] [μmoles/hr/mg Protein]	other results
CCCC(C)O (stereo not shown) [2-Pentanol, 2-pentanol]	0.5	0.60	2.5	3.5	0.80	0.82	0.25	0.45	0.1	1.0 μmoles/hr/mg of protein	1.5 μmoles/hr/mg of protein	1.2 μmoles/hr/mg of protein	1.3 μmoles/hr/mg of protein	0.9 μmoles/hr/mg of protein	1.0 μmoles/hr/mg of protein	1.2 μmoles/hr/mg of protein	0.72 μmoles/hr/mg of protein	0.98 μmoles/hr/mg of protein	0.60 μmoles/hr/mg of protein	0.82	Conversion Rate, sec-alcohol to methyl ketone [8]: 1.0 μmoles/hr/mg Protein; Conversion Rate, sec-alcohol to methyl ketone [9]: 1.0 μmoles/hr/mg Protein; Conversion Rate, sec-alcohol to methyl ketone [10]: 1.2 μmoles/hr/mg Protein
CC(C)O [2-Propanol, 2-propanol]	0.15	0.52	0.80	0.75	0.32	0.25	0.40	0.35	2.1	5.2 μmoles/hr/mg of protein	6.2 μmoles/hr/mg of protein	5.0 μmoles/hr/mg of protein	5.6 μmoles/hr/mg of protein	4.2 μmoles/hr/mg of protein	4.5 μmoles/hr/mg of protein	5.2 μmoles/hr/mg of protein	4.2 μmoles/hr/mg of protein	4.9 μmoles/hr/mg of protein	3.2 μmoles/hr/mg of protein	4.5	Conversion Rate, sec-alcohol to methyl ketone [8]: 4.8 μmoles/hr/mg Protein; Conversion Rate, sec-alcohol to methyl ketone [9]: 4.5 μmoles/hr/mg Protein; Conversion Rate, sec-alcohol to methyl ketone [10]: 4.8 μmoles/hr/mg Protein
CCC(C)O (stereo not shown) [2-Butanol, 2-butanol]	0.84	1.5	0.60	0.70	1.1	1.0	0.39	0.40	2.5	5.2 μmoles/hr/mg of protein	6.8 μmoles/hr/mg of protein	5.0 μmoles/hr/mg of protein	6.2 μmoles/hr/mg of protein	4.2 μmoles/hr/mg of protein	6.2 μmoles/hr/mg of protein	6.8 μmoles/hr/mg of protein	5.1 μmoles/hr/mg of protein	6.9 μmoles/hr/mg of protein	2.1 μmoles/hr/mg of protein	4.92	Conversion Rate, 2-butanol to 2-butanone ([5]; Growth Substrate CH3 NH2): 2.0 nmoles/min/mg protein; Conversion Rate, 2-butanol to 2-butanone ([5]; Growth Substrate CH3 OH): 2.5 nmoles/min/mg protein; Conversion Rate, 2-butanol to 2-butanone ([5]; Growth Substrate CH4): 1.8 nmoles/min/mg protein; Conversion Rate, 2-butanol to 2-butanone ([5]; Growth Substrate HCOOCH3): 2.0 nmoles/min/mg protein; Conversion Rate, sec-alcohol to methyl ketone [8]: 5.2 μmoles/hr/mg Protein; Conversion Rate, sec-alcohol to methyl ketone [9]: 4.9 μmoles/hr/mg Protein; Conversion Rate, sec-alcohol to methyl ketone [10]: 5.9 μmoles/hr/mg Protein

— patent publication US4250259A, “Microbiological production of ketones from C3 -C6 secondary alcohols” (priority 1979, dated 1981)
